Measured values from patent publication US20240132477A1, “Benzimidazole Derivatives and Their Use As Inhibitors of ITK For The Treatment of Skin Disease” (PFIZER INC., priority 2020, published 2024).
Like-named read-outs stand apart in the source and are kept apart here.

Tests used:
[1] = target: IL-2-Inducible T-Cell Kinase (ITK) (Homo sapiens (Human), UniProt Q08881); assay: ITK enzyme assay; format: biochemical; settings: geometric mean of count n; ITK FL enzyme, BTK peptide substrate
Protocol: IL-2-Inducible T-Cell Kinase (ITK) Activity, IC50 (uM)
ITK activity was determined by measuring the effect of a test compound in an ITK enzyme assay.
1.0 M HEPES Buffer pH 7.5 solution was prepared as follows: 238.3 g HEPES free acid (Sigma) and 800 mL of water were combined, and the mixture was stirred until complete dissolution. The pH was adjusted to 7.5 via titration with 5N NaOH and the volume adjusted to 1000 mL. The solution was filtered and sterilized.
ITK assay buffer was prepared as follows: 50 mL of HPLC-grade water was treated with 2 mL of 1.0 M HEPES Buffer, 500 μL of 2% Gelatin (Sigma), 1.0 mL of aqueous MgCl2 solution (1.0 M), and 1.0 mL of aqueous glutathione solution (0.5 M), and the solution was mixed. The solution was brought to 99 mL in a graduated cylinder by addition of water and sterilized through a 0.2 μm filter. 0.1 mL of Brij-35™ Surfact-AmpS™ Detergent Solution (10% w/v aqueous solution, ThermoFisher) and 1.0 mL of ATP (Teknova, 100 mM) were added and the solution was mixed.
Preparation of 1.33×ITK enzyme solution was as follows: 49.99 mL of ITK assay buffer was treated with 4.1 μL of ITK enzyme (ITK FL (N-Flag and C-His tagged, ˜72 kDa) Lake Pharma, 0.25 mg/ml in a buffer containing 25 mM Tris pH 7.8, 150 mM NaCl, 10% glycerol and 2 mM TCEP) and the mixture was gently agitated. The resulting solution was stored on ice. 30 Minutes prior to use, the enzyme solution was removed from ice and equilibrated to RT by incubation in a RT water bath.
Preparation of 4×ITK substrate solution was as follows: 50 mL of ITK assay buffer was treated with 100 μL of BTK peptide (China Peptide Company, 2 mM stock solution in DMSO). The tube was capped, mixed by gently inverting the tube, and then stored on ice. 30 Minutes prior to use, the substrate solution was removed from ice and equilibrated to RT by incubation in a RT water bath.
At the time of assay, 7.5 μL of the 1.33×ITK enzyme solution was added to plate wells containing 0.1 μL of varying concentrations of test compound in DMSO. The plate was incubated 30 min at RT. The plate wells were each treated with 2.5 uL of the 4×ITK substrate solution and the plate was sealed (TopSeal™, Perkin Elmer). The plate was spun at 1000 rpm for 30 sec and then incubated for 60 min at RT. The seal was removed, and each well was treated with 10 μL of Stop/Detect Buffer (20 mM HEPES pH 7.5, 0.01% gelatin, 1 nM LANCE PT66 (Perkin Elmer), 16.5 μg/ml Surelight APC (Perkin Elmer), 10 mM EDTA, 250 mM NaCl). The plate was again covered and was spun at 1000 rpm for 30 seconds. The plate was allowed to incubate overnight at RT and in a closed carrier to reduce dehydration. The seal was removed, and the fluorescence was read with a plate reader with […]. The concentrations and resulting effect values for the tested compound were plotted and the concentration of compound required for 50% effect (IC50) was determined with the four-parameter logistic dose response equation.

[2] = system: IL-2 in supernatants from activated CD4+ human T-cells; assay: IL-2 inhibition in supernatants from activated CD4+ human T-cells (cisbio HTRF); format: cell-based; settings: T-cell, read-out: IL-2 IC50
Protocol: IL-2-Inhibition Activity, IC50 (uM)
IL-2 inhibition activity in supernatants from activated CD4+ human T-cells was determined by measuring the effect of a test compound on the activity using the cisbio HTRF™ technology.
Human CD4+ T cells were activated with CD3/CD28 for 3 days and expanded for an additional 4-6 days (7 to 9 days total). On day 0, frozen CD4+ T cells were thawed, treated with CD3/CD28 Dynabeads, and incubated at 37° C./5% CO2. On day 3, the beads were removed, and the cells were diluted to 5×10^5 cells/cm^2, placed in G-Rex10 flask, and incubated at 37° C./5% CO2. On day 7 to day 9 the cells were removed from the G-Rex flasks, counted and diluted back to 1×10^6 cells/ml in standard tissue culture flask.
The expanded CD4+ T-cells were centrifuged at 300×g for 10 minutes and resuspended to 0.5 million cells per ml (30,000 cells/well). 60 μl of CD4+ T cells were added per well to a 384 well plate containing 0.1 μL of varying concentrations of test compound in DMSO. The plates were incubated for 15 min at 37° C./5% CO2. 20 μl of diluted ImmunoCult™ (STEMCELL Technologies, 1:12.5 in T cell assay media) were added to all wells of the plate (1:50 final assay concentration). The plates were incubated for an additional 20 to 24 hrs at 37° C./5% CO2. The plates were centrifuged at 300×g for 10 minutes. 16 μL of supernatant was removed and combined with 4 μl of IL-2 HTRF Abs. (cisbio kit). Plates were incubated for 3 hours at RT and read with an EnVision plate reader at 665 nm and 615 nm wavelengths. The concentrations and resulting effect values for the tested compound were plotted and the concentration of compound required for 50% effect (IC50) was determined with the four-parameter logistic dose response equation.

[3] = target: Tropomyosin Receptor Kinase A (TRKA, NTRK1 enzyme) (Homo sapiens (Human), UniProt P04629); assay: TRKA (NTRK1) ThermoFisher Z'-LYTE assay; format: biochemical; settings: read-out: TRKA % inhibition
Protocol: Tropomyosin Receptor Kinase a (TRKA) Activity, % Inhibition
TRKA, also known as neurotrophic tyrosine kinase receptor type 1 (NTKR1) activity was determined by measuring the effect of a test compound on the activity against the NTRK1 enzyme using the ThermoFisher Z′-LYTE Assay fluorescence-based coupled enzyme format (www.thermofisher.com/selectscreen). Test compounds were screened at a fixed concentration of 1 uM and the % inhibition was determined compared to controls at a fixed ATP concentration of 1 mM. The resulting effect value for the tested compound was compared to the assay controls to determine the % inhibition (%). % Inhibition (%) values for compounds of the invention are presented in the Table that follows.

[4] = geometric mean of count n, activated CD4+ human T-cells, 20 to 24 hrs
[5] = test compound 1 uM, ATP 1 mM, arithmetic mean of count n

Tropomyosin Receptor Kinase A (TRKA, NTRK1 enzyme), sequence (P04629 33-796): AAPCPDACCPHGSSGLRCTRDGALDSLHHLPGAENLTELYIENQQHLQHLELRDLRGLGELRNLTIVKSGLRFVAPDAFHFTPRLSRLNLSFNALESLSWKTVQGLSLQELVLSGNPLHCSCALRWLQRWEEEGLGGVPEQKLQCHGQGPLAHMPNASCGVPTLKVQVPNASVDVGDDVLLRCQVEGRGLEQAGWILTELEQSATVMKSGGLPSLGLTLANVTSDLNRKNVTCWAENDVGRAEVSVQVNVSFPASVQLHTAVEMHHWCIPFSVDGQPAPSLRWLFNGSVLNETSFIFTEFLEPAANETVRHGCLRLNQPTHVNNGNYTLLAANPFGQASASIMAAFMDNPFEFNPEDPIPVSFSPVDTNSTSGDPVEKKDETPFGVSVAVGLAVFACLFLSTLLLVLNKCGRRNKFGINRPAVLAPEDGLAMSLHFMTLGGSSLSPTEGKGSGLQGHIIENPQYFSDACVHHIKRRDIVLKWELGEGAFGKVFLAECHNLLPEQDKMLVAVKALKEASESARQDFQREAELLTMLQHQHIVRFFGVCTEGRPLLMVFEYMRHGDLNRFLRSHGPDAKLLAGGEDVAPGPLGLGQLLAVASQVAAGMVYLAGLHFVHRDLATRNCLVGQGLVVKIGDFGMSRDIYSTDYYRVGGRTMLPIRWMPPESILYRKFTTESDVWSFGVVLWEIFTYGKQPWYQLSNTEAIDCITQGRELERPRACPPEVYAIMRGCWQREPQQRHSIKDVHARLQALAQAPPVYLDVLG
IL-2-Inducible T-Cell Kinase (ITK), sequence (Q08881 whole entry): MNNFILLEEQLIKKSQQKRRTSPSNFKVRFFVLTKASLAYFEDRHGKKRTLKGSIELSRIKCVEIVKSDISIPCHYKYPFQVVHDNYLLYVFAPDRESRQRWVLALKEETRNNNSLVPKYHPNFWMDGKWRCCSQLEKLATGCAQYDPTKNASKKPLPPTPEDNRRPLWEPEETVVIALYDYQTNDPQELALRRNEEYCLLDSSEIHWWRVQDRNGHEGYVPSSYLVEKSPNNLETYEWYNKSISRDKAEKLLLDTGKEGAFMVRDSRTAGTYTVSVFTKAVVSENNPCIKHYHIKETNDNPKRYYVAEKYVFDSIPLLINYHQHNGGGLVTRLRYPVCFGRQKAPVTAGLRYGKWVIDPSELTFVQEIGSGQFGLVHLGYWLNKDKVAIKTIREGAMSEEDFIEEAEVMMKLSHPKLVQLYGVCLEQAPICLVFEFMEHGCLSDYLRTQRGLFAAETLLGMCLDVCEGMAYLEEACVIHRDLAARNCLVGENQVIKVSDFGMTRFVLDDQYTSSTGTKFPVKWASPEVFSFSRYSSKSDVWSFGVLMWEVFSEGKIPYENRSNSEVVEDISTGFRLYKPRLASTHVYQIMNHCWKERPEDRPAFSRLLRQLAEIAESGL

Compound | IC50 [1] [nM] | IC50 [2, 4] [nM] | inhibition at 1 µM [3, 5] [%] | IC50 ([2]; Homo sapiens) [nM] | inhibition at 1 µM [3] [%]
CC(=O)N(C)c1ccc2[nH]c(-c3n[nH]c4c3C[C@@H]3C(F)(F)[C@]3(C)C4)nc2c1 [Example 2, N-(2-((4aS,5aR)-5,5-difluoro-5a-methyl-1,4,4a,5,5a,6-hexahydrocyclopropa[f]indazol-3-yl)-1H-benzo[d]imidazol-5-yl)-N-methylacetamide] | 4 | 15 | 95 | – | –
CCOCC(=O)N(C)c1cc2nc(-c3n[nH]c4c3C[C@@H]3C[C@]3(C)C4)[nH]c2cc1C [Example 38, 2-Ethoxy-N-methyl-N-(6-methyl-2-((4aS,5aR)-5a-methyl-1,4,4a,5,5a,6-hexahydrocyclopropa[f]indazol-3-yl)-1H-benzo[d]imidazol-5-yl)acetamide] | 7 | 74 | 97 | – | –
Cc1cc2[nH]c(-c3n[nH]c4c3C[C@@H]3C[C@]3(C)C4)nc2cc1N(C)C(=O)[C@@H]1CCOC1 [Example 29, (R)-N-Methyl-N-(6-methyl-2-((4aS,5aR)-5a-methyl-1,4,4a,5,5a,6-hexahydrocyclopropa[f]indazol-3-yl)-1H-benzo[d]imidazol-5-yl)tetrahydrofuran-3-carboxamide] | 6 | 61 | 97 | – | –
COc1cc2[nH]c(-c3n[nH]c4c3C[C@@H]3C[C@]3(C)C4)nc2cc1N(C)C(C)=O [Example 6, N-(6-methoxy-2-((4aS,5aR)-5a-methyl-1,4,4a,5,5a,6-hexahydrocyclopropa[f]indazol-3-yl)-1H-benzo[d]imidazol-5-yl)-N-methylacetamide] | 37 | 173 | 103 | – | –
COCCOc1cc2[nH]c(-c3n[nH]c4c3C[C@@H]3C[C@]3(C)C4)nc2cc1N(C)C(C)=O [Example 7, N-(6-(2-methoxyethoxy)-2-((4aS,5aR)-5a-methyl-1,4,4a,5,5a,6-hexahydrocyclopropa[f]indazol-3-yl)-1H-benzo[d]imidazol-5-yl)-N-methylacetamide] | 13 | 595 | 105 | – | –
CC(=O)Nc1cc2nc(-c3n[nH]c4c3C[C@@H]3C[C@]3(C)C4)[nH]c2cc1C [Example 4, N-(6-methyl-2-((4aS,5aR)-5a-methyl-1,4,4a,5,5a,6-hexahydrocyclopropa[f]indazol-3-yl)-1H-benzo[d]imidazol-5-yl)acetamide] | 71 | 391 | 105 | – | –
Cc1cc2[nH]c(-c3n[nH]c4c3C[C@@H]3C[C@]3(C)C4)nc2cc1N(C)C(=O)[C@H]1CCCO1 [Example 23, (R)-N-Methyl-N-(5-methyl-2-((4aS,5aR)-5a-methyl-1,4,4a,5,5a,6-hexahydrocyclopropa[f]indazol-3-yl)-1H-benzo[d]imidazol-6-yl)tetrahydrofuran-2-carboxamide] | 10 | 89 | 97 | – | –
Cc1cc2[nH]c(-c3n[nH]c4c3C[C@@H]3C[C@]3(C)C4)nc2cc1N(C)C(=O)CN(C)C(=O)C(C)C [Example 30, N-Methyl-N-(2-(methyl(6-methyl-2-((4aS,5aR)-5a-methyl-1,4,4a,5,5a,6-hexahydrocyclopropa[f]indazol-3-yl)-1H-benzo[d]imidazol-5-yl)amino)-2-oxoethyl)isobutyramide] | 3 | – | – | 51 | 98
CC(=O)N(C)c1cc2nc(-c3n[nH]c4c3C[C@@H]3C[C@]3(C)C4)[nH]c2cc1C [Example 17, N-Methyl-N-(6-methyl-2-((4aS,5aR)-5a-methyl-1,4,4a,5,5a,6-hexahydrocyclopropa[f]indazol-3-yl)-1H-benzo[d]imidazol-5-yl)acetamide] | 10 | 81 | 100 | – | –
